These results are taken from patent publication US7312360B2, “Substituted hydroxyethylamines” (Elan Pharmaceuticals, Inc., priority 2001, dated 2007).

In general, melting point refers to the temperature, or range, at which the solid turns liquid. `CCCCOc1cccc(C[C@H](N)[C@H](O)CNCc2cccc(CC)c2)c1.Cl.Cl` registered a melting point of 197 to 199 °C.
To `CCCCOc1cccc(C[C@H](NC(=O)c2coc(NS(C)(=O)=O)n2)[C@H](O)CNCc2cccc(CC)c2)c1` [Example 50a, N-{(1S,2R)-1-(3-butoxybenzyl)-3-[(3-ethylbenzyl)amino]-2-hydroxypropyl}-2-[(methylsulfonyl)amino]-1,3-oxazole-4-carboxamide] belongs 78 to 80 °C; to `CCCCOc1cccc(C[C@H](NC(C)=O)[C@H](O)CNCc2cccc(CC)c2)c1` [Example 50b, N-{(1S,2R)-1-(3-butoxybenzyl)-3-[(3-ethylbenzyl)amino]-2-hydroxypropyl}acetamide], 112 to 114 °C; to `CCCCCCOc1cccc(C[C@H](NC(C)=O)[C@H](O)CNCc2cccc(CC)c2)c1` [Example 93B, N-{(1S,2R)-3-[(3-ethylbenzyl)amino]-1-[3-(hexyloxy)benzyl]-2-hydroxypropyl}acetamide], 102 to 105 °C.
`CCCCCCOc1cccc(C[C@H](NC(=O)c2coc(NS(C)(=O)=O)n2)[C@H](O)CNCc2cccc(CC)c2)c1` [Example 45, N-{(1S,2R)-3-[(3-ethylbenzyl)amino]-1-[3-(hexyloxy)benzyl]-2-hydroxypropyl}-2-[(methylsulfonyl)amino]-1,3-oxazole-4-carboxamide] came in with a melting point of 85 to 90 °C.
To `CCCCCCOc1cccc(C[C@H](NC(=O)c2cccc(-c3ncco3)c2)[C@H](O)CNCc2cccc(CC)c2)c1` [Example 93A, N-{(1S,2R)-3-[(3-ethylbenzyl)amino]-1-[3-(hexyloxy)benzyl]-2-hydroxypropyl}-3-(1,3-oxazol-2-yl)benzamide] belongs 117 to 120 °C.
